What all share (test): IA-DTB cysteine engagement
Common to all, as to format: binding
Holding throughout (settings): 22Rv1 cells, 20 μM probe, 1 h, relative to DMSO

The target of assay [1] is T1, ABCB8_C461 (Homo sapiens, UniProt Q9NUT2).
T1 construct: endogenous in cells; host or cells: 22Rv1
T1 sequence (Q9NUT2 26-735): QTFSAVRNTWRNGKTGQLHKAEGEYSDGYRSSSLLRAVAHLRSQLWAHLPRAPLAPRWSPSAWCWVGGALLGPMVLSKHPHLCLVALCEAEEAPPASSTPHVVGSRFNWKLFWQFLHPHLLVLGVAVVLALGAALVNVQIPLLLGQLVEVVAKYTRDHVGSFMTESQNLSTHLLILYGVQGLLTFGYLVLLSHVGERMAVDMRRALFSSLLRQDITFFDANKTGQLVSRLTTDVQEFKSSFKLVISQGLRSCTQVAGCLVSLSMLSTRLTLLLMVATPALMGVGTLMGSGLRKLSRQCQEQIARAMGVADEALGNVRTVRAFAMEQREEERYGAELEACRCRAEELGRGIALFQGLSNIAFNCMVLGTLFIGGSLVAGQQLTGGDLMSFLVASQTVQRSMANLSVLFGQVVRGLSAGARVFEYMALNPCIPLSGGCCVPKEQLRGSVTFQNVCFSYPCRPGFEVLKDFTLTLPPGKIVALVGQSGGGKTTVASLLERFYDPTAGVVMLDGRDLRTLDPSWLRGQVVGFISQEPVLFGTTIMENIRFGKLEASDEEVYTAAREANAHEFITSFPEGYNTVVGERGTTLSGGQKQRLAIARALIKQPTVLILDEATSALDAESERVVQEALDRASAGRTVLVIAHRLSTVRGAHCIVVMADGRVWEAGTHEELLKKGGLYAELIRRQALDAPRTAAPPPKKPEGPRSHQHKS
The method in brief: (§1)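 Read-out is TMT-based cysteine engagement, expressed as each reporter ion intensity divided by the average of the DMSO channels. Before that, probe-treated cell lysates were capped with IA-DTB, digested, enriched on streptavidin and TMT-tagged. PSMs with DMSO summed intensity <10,000 or DMSO CV >0.5 were excluded.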

Assay [2] concerns the target T2, SPATA2_C41 (Homo sapiens, UniProt Q9UM82).
T2 construct: endogenous in cells; host or cells: 22Rv1
T2 sequence (Q9UM82 1-520): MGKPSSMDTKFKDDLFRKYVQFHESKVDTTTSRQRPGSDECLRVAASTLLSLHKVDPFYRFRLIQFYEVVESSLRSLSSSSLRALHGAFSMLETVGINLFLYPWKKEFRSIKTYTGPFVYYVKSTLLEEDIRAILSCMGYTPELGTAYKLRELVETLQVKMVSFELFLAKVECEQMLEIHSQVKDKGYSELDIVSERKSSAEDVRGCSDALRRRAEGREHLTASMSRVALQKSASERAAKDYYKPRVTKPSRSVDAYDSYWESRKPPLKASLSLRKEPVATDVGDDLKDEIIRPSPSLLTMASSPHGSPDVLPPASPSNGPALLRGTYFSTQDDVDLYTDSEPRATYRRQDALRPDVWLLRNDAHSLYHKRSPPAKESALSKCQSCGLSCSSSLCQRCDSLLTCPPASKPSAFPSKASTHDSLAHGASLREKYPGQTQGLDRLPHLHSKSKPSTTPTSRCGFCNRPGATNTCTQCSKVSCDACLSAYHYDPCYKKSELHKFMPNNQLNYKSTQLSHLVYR
The method in brief: as §1

In assay [3] the target is T3, NUP205_C224 (Homo sapiens, UniProt Q92621).
T3 construct: endogenous in cells; host or cells: 22Rv1
The method in brief: as §1

T3 sequence (Q92621 whole entry): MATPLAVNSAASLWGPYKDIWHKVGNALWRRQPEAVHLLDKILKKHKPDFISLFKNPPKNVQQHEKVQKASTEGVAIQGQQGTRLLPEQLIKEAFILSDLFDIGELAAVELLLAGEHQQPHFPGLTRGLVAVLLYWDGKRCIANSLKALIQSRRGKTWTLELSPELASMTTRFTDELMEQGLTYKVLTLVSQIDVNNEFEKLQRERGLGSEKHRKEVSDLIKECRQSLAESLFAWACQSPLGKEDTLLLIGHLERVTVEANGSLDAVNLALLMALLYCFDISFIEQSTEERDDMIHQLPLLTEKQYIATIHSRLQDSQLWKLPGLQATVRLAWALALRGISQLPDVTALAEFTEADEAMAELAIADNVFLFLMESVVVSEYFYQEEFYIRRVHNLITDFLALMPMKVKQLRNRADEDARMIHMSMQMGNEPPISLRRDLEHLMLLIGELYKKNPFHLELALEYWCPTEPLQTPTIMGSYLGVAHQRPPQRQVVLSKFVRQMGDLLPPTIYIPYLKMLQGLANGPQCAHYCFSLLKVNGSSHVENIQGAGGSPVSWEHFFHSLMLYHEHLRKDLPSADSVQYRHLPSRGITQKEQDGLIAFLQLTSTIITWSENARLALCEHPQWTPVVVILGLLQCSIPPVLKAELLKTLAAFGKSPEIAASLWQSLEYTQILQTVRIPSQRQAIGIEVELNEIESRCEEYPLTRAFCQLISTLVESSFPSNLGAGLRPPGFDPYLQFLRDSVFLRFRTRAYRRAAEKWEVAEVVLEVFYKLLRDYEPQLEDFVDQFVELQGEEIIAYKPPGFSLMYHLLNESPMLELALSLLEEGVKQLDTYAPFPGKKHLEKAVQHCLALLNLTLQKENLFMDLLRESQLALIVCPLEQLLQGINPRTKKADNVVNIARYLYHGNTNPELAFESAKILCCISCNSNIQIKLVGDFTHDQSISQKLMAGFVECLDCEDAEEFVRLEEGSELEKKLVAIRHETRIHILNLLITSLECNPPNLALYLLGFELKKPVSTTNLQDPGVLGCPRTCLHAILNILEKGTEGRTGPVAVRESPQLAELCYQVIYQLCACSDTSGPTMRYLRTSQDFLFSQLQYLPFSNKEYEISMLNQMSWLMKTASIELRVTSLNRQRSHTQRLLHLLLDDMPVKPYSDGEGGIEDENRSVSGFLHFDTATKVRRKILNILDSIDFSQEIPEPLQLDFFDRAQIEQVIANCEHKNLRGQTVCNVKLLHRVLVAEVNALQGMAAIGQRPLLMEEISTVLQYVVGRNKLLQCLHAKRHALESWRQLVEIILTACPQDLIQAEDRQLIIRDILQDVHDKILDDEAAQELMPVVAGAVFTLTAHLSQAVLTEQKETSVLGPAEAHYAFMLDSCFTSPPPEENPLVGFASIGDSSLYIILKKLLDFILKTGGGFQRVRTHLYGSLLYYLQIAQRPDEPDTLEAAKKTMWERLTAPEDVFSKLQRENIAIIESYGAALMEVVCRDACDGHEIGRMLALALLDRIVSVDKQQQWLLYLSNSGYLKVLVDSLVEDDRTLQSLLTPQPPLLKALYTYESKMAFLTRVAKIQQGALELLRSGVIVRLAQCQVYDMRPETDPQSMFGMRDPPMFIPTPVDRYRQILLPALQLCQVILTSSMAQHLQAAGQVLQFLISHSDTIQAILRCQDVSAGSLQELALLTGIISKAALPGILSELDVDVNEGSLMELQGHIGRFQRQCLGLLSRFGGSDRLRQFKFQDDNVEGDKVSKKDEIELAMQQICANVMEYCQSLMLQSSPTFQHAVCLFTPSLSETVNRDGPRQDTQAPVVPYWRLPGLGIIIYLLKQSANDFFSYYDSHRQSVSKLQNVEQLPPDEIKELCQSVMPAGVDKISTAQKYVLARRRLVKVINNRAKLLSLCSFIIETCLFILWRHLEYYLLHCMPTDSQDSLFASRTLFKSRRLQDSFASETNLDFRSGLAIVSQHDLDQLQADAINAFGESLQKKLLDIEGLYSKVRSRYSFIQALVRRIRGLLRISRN

With `C=CC(=O)N1C[C@@H](c2ccc(Br)cc2)[C@H]1C(=O)Nc1cccc2cccnc12` [MY-1A, (2S,3R)-1-acryloyl-3-(4-bromophenyl)-N-(quinolin-8-yl)azetidine-2-carboxamide], the “% engagement ABCB8_C461” value in assay [1] was −3%. The “% engagement SPATA2_C41” value in assay [2] stood at 58%. The “% engagement NUP205_C224” value in assay [3] is recorded as 28.5%.
For `C=CC(=O)N1C[C@H](c2ccc(Br)cc2)[C@@H]1C(=O)Nc1cccc2cccnc12` [MY-1B, (2R,3S)-1-acryloyl-3-(4-bromophenyl)-N-(quinolin-8-yl)azetidine-2-carboxamide] the same measures were 0%, 91.75% and 6%.
In the case of `C=CC(=O)N1C[C@H](c2ccc(Br)cc2)[C@H]1C(=O)Nc1cccc2cccnc12` [MY-3A, (2S,3S)-1-acryloyl-3-(4-bromophenyl)-N-(quinolin-8-yl)azetidine-2-carboxamide], the “% engagement ABCB8_C461” value in assay [1] amounted to 32.5%. Further, the “% engagement SPATA2_C41” value in assay [2] was 24.5%. Also, the “% engagement NUP205_C224” value in assay [3] is given as 100%.
As for `C=CC(=O)N1C[C@H](c2ccc(Br)cc2)[C@H]1C(=O)Nc1cccc2cccnc12` [MY-3B, (2S,3S)-1-acryloyl-3-(4-bromophenyl)-N-(quinolin-8-yl)azetidine-2-carboxamide], in assay [1], the “% engagement ABCB8_C461” value was found to be 66.5%. Besides, in assay [2], the “% engagement SPATA2_C41” value is reported as 29.5%. Also, the “% engagement NUP205_C224” value in assay [3] amounted to 30.5%.

For the origin of these results see patent US20250034216A1, “STEREOSELECTIVE COVALENT LIGANDS FOR ONCOGENIC AND IMMUNOLOGICAL PROTEINS” (The Scripps Research Institute, priority 2021, published 2025).
